Columns and labels:
p53 in A2780 cells = assay: p53 ELISA (preservation of p53 in A2780 cells); assay type: cell-based; conditions: Homo sapiens, treated with compound for 16 hours, read-out: p53-elisa LAD (lowest dose giving at least 140% of the value for p53 present in the control)
Description: The capacity of the compounds to preserve p53 in A2780 cells was measured with the p53 enzyme linked immunosorbent assay (ELISA). The p53 assay is a “sandwich” enzyme immunoassay employing two polyclonal antibodies. A polyclonal antibody, specific for the p53 protein, has been immobilized onto the surface of the plastic wells. Any p53 present in the sample to be assayed will bind to the capture antibody. The biotinylated detector polyclonal antibody also recognizes p53 protein, and will bind to any p53, which has been retained by the capture antibody. The detector antibody, in turn, is bound by horseradish peroxidase-conjugated streptavidin. The horseradish peroxidase catalyses the conversion of the chromogenic substrate o-phenylene diamine, the intensity of which is proportional to the amount of p53 protein bound to the plate. The coloured reaction product is quantified using a spectrophotometer. Quantitation is achieved by the construction of a standard curve using known concentrations of purified recombinant HIS tagged p53 protein (see example C.1).
A2780 cells (ATCC) were cultivated in RPMI 1640 supplemented with 10% fetal calf serum (FCS), 2 mM L-glutamine and gentamycin at 37° C. in a humidified incubator with 5% CO2.
A2780 cells were seeded at 20.000 cells per well in a 96 well plate, cultured for 24 hours and treated with compound for 16 hours at 37° C. in a humidified incubator. After incubation, the cells were washed once with phosphate-buffered saline and 30 μl, per well, low salt RIPA buffer (20 mM tris, pH7.0, 0.5 mM EDTA, 1% Nonidet P40, 0.5% DOC, 0.05% SDS, 1 mM PMSF, 1 μg/ml aprotinin and 0.5 μ/ml leupeptin) was added. Plates were placed on ice for 30 minutes to complete the lysis. p53 protein was detected in de lysates by using the sandwich ELISA, described below.
High binding polystyrene EIA/RIA 96 well plates (Costar 9018) were coated with the capture antibody pAb1801 (Abcam ab28-100) at a concentration of 1 μg/ml in coating buffer (0.1 M NaHCO3 pH8.2), 50 μl per well. The antibody was allowed to adhere overnight at 4° C. Coated plates were washed once with phosphate-buffered saline (PBS)/0.05% Tween 20 and 300 μl of blocking buffer (PBS, 1% bovine serum albumins (BSA)) was added, for an incubation period of 2 hours at room temperature. Dilutions of purified recombinant HIS tagged p53 protein, ranging from 3-200 ng/ml, were made in blocking buffer and used as standards.
Plates were washed twice with PBS/0.05% Tween 20 and blocking buffer or standards were added at 80 μl/well. To the standards, 20 μl of lysis buffer was added. The samples were added to the other wells at 20 μl lysate/well. After an overnight incubation at 4° C., plates were washed twice with PBS/0.05% Tween 20. Aliquots of 100 μl secondary polyclonal antibody p53(FL-393) (Tebubio, sc-6243) at a concentration of 1 μg/ml in blocking buffer were added to each well and allowed to adhere for 2 hours at room temperature. Plates were washed three times with PBS/0.05% Tween 20. Detection antibody anti-rabbit HRP (sc-2004, Tebubio) at 0.04 μg/ml in PBS/1% BSA was added and incubated for 1 hour at room temperature. Plates were washed three times with PBS/0.05% Tween 20 and 100 μl of substrate buffer was added (substrate buffer was prepared shortly before use by adding 1 tablet of 10 mg o-phenylene diamine (OPD) from Sigma and 125 μl 3% H2O2 to 25 ml OPD buffer: 35 mM citric acid, 66 mM Na2HPO4, pH5.6). After 5 to 10 minutes, colour reaction was stopped by adding 50 μl stop buffer (1 M H2SO4) per well. The absorbance at dual wavelengths of 490/655 nm was measured using a Biorad micro plate reader and the results were then analyzed.
For each experiment, controls (containing no drug) and a blank incubation (containing no cells or drugs) were run in parallel. The blank value was subtracted from all control and sample values. For each sample, the value of p53 (in absorbance units) was expressed as the percentage of the value for p53 present in the control. […]

[1] = system: A2780 ovarian cancer cells; assay: Proliferation assay (Alamar Blue); assay type: cell-based; conditions: Homo sapiens, 96 h, 4-day incubation, read-out: pIC50 (negative log value of the IC50-value) (converted)
Description: Cellular activity of the compounds of formula (I) was determined on A2780 tumour cells using a colorimetric assay for cell toxicity or survival (see example C.2).
The human A2780 ovarian cancer cells were a kind gift from Dr. T. C. Hamilton (Fox Chase Cancer Centre, Pennsylvania, U.S.A.). The cells were cultured in RPMI 1640 medium supplemented with 2 mM L-Glutamine, 50 μg/ml gentamicin and 10% fetal calf serum.
Resazurin was purchased from Aldrich (Prod. No. 199303). Potassium ferrocyanide, potassium ferricyanide, KH2PO4 and K2HPO4 were purchased from Sigma (Prod. Nos. P9387, P8131, P5655 and P8281, respectively).
Potassium Phosphate Buffer 0.1 M (PPB) was made as follows: 2.72 gram KH2PO4 and 13.86 gram K2HPO4 were dissolved in 500 ml milli-Q H2O, the pH was adjusted to pH 7.4 and the volume was brought to 1 liter with milli-Q H2O; the buffer was filter sterilised and stored at room temperature. Resazurin stock solution (PPB-A) was prepared fresh by dissolving 45 mg resazurin in 15 ml PBS. 30 mM potassium ferricyanide (PPB-B) was prepared by dissolving 0.987 gram potassium ferricyanide in 100 ml PPB. 30 mM potassium ferrocyanide (PPB-C) was prepared by dissolving 1.266 gram potassium ferrocyanide in 100 ml PPB.
Mixture of PPB-A, PPB-B and PPB-C was prepared by mixing equal volumes of the respective solutions. Resazurin work solution (herein termed “Alamar Blue” solution) was prepared by diluting said mixture 20× (vol/vol) in PPB and filter sterilising; the Alamar Blue solution could be kept at 4° C. for a maximum of 2 weeks.
For experiments in 384 wells plates the cells were seeded at a density of 5×10^3 cells/ml in Falcon 384-well culture plates (Life Technologies, Merelbeke, Belgium), black with clear bottom, in 45 μl culture medium. Cells were allowed to adhere to plastic for 24 hr. The tested compound was pre-diluted (1/50 in culture medium) and 5 μl pre-diluted compound was added to the wells. Following 4-day incubation, 10 μl of the Alamar Blue solution was added to each well and the cells were further incubated for 5 hrs (A2780) at 37° C. The fluorescence intensity was measured for each well with a Fluorescence plate reader (Fluorskan, Labsystems, 540 nm excitation and 590 nm emission)
The antiproliferative activity was calculated as percentage of remaining viable cells in treated versus control (untreated cells) conditions. Within an experiment, the result for each experimental condition is the mean of 3 replicate wells. When appropriate, the experiments were repeated to establish full concentration-response curves. When appropriate, IC50-values (concentration of the drug, needed to reduce cell growth to 50% of the control) were computed using probit analysis for graded data (Finney, D. J., Probit Analyses, 2nd Ed. Chapter 10, Graded Responses, Cambridge University Press, Cambridge 1962). Herein the effects of test compounds are expressed as pIC50 (the negative log value of the IC50-value) (see Table 4).

`CC1Oc2cc(Nc3ccnc(CO)c3)ccc2N(CCc2c[nH]c3ccccc23)C1=O` (centres unmarked) [Compound 65] was tested, and the minimal effective concentration (p53 in A2780 cells) was over 10 µM and the IC50 [1] was over 10 µM.

In the case of `OCc1cc(Nc2ccc3c(c2)CCCN3CCc2c[nH]c3ccccc23)ccn1` [Compound 66], the minimal effective concentration (p53 in A2780 cells) is reported as 3 µM and the IC50 [1] is reported as 1.41 µM.

Compound `OCc1cc(Nc2ccc3c(c2)OCCN3CCc2csc3ccccc23)ccn1` [Compound 67] has a minimal effective concentration (p53 in A2780 cells) of 10 µM and an IC50 [1] of 5.01 µM.

Compound `OCc1cc(Nc2ccc3c(c2)OCCN3CCc2coc3ccccc23)ccn1` [Compound 68] has a minimal effective concentration (p53 in A2780 cells) of over 10 µM and an IC50 [1] of 5.25 µM.

For `OCc1cc(Nc2cc(F)c3c(c2)OCCN3CCc2c[nH]c3ccccc23)ccn1` [Compound 69], the minimal effective concentration (p53 in A2780 cells) was 10 µM and the IC50 [1] was over 10 µM.

For `OC1CCc2c(Nc3ccc4c(c3)OCCN4CCc3coc4ccccc34)ccnc21` (centres unmarked) [Compound 70], the minimal effective concentration (p53 in A2780 cells) was 10 µM and the IC50 [1] was 6.46 µM.

In the case of `COc1cccc2c(CCN3CCOc4cc(Nc5ccnc6c5CCC6O)ccc43)c[nH]c12` (centres unmarked) [Compound 71], the minimal effective concentration (p53 in A2780 cells) is reported as over 10 µM and the IC50 [1] is reported as 5.25 µM.

`Cc1cccc2c(CCN3CCOc4cc(Nc5ccnc(CO)c5)ccc43)c[nH]c12` [Compound 72] showed a minimal effective concentration (p53 in A2780 cells) of over 10 µM and an IC50 [1] of 4.68 µM.

`CN1CCN(CCc2c[nH]c3ccccc23)c2ccc(Nc3ccnc4c3CCC4O)cc21` (centres unmarked) [Compound 75] was tested, and the minimal effective concentration (p53 in A2780 cells) was over 10 µM and the IC50 [1] was about 5.25 µM.

With `CN1CCN(CCc2c[nH]c3ccccc23)c2ccc(Nc3ccncc3)cc21` [Compound 76] the minimal effective concentration (p53 in A2780 cells) was 10 µM and the IC50 [1] was 3.31 µM.

`CC1(C)CN(CCc2c[nH]c3ccccc23)c2ccc(Nc3ccnc4c3CCC4O)cc2O1` (centres unmarked) [Compound 77] was tested, and the minimal effective concentration (p53 in A2780 cells) was 3 µM and the IC50 [1] was 2.19 µM.

For `CC1(C)CN(CCc2c[nH]c3ccccc23)c2ccc(Nc3ccnc(CO)c3)cc2O1` [Compound 78], the minimal effective concentration (p53 in A2780 cells) was over 10 µM and the IC50 [1] was 6.17 µM.

`COc1cccc2c(CCN3CCOc4cc(Nc5ccnc(CO)c5)ccc43)c[nH]c12` [Compound 81] showed a minimal effective concentration (p53 in A2780 cells) of over 10 µM and an IC50 [1] of 4.17 µM.

Reference: patent US8288377B2, “Inhibitors of the interaction between MDM2 and p53” (Janssen Pharmaceutica N.V., priority 2007, dated 2012)
